Results: US20220168301A1, “METHODS FOR TREATING SYMPTOMATIC ORTHOSTATIC HYPOTENSION” (Cerecor Inc, priority 2019, published 2022)
Where two headings read alike, the source gives them in different places.

Legend:
[1] = Plasma pharmacokinetics of CERC-301, single and 7-day repeated dose, healthy subjects; assay type: in vivo, human; conditions: for half-life: read-out: Average t1/2; for Tmax: read-out: Median tmax
Experimental: The study was a randomized, double-blind, placebo-controlled parallel-group, three-part, repeated dose in-patient study investigating the safety, tolerability, PK, and PD of CERC-301 in healthy subjects.
Subjects received 8, 12, 16 or 20 mg CERC-301 or matching placebo once-daily for 7 days.
PK endpoints included the following determined from plasma CERC-301 concentration data: • Day 1 parameters include Cmax, Tmax, AUC0-24, AUC0-inf, AUC%extrap, CL/F, Vz/F, and t1/2 • Day 7 parameters include Cmax, Tmax, AUC0-24, AUC0-inf, AUC%extrap, CL/F, Vss/F, t1/2, and Cavg • Trough concentrations will be reported for Days 2-8 • Accumulation after 7-days of dosing will be investigated by calculating: • Observed Accumulation Ratio: AUCo-24 (Day 7)/AUC0-24 (Day 1) • Steady State Accumulation Ratio: AUC0-24 (Day 7)/AUC0-int (Day 1) • Cmax ratio: Cmax (Day 7)/Cmax (Day 1)
Pharmacokinetic parameters were determined for CERC-301 using noncompartmental methods based on plasma CERC-301 concentration data following the first and last dose of CERC-301. […] Mean plasma CERC-301 concentrations on Day 7 were approximately 20% to 40% higher from 2 to 24 hours postdose in the intermediate age and elderly subgroups, respectively, compared to the young age subgroup, and were approximately 20% higher from 2 to 24 hours postdose in female subjects compared to male subjects.

[2] = Plasma pharmacokinetics of single escalating doses in patients with symptomatic nOH associated with Parkinson's disease; assay type: in vivo, human; conditions: for Cmax / AUC: human, plasma, oral; for AUC: 6-hour PK collection period, read-out: Area Under the Curve (AUC)
Experimental: Subjects were dosed on five separate occasions, approximately 7-10 days apart, with one of four single escalating doses of CERC-301 or placebo and underwent an orthostatic challenge test to assess the safety, tolerability, effect on blood pressure, and PK. Subjects also completed a symptomatic assessment following the orthostatic challenge. Subjects were enrolled and randomized based on the dosing schedule in Table 4:
Investigational product was administered as CERC-301 4 mg tablets and matching placebo. Study drug was administered orally (P.O) with water approximately 1.5 hours after the patient consumed breakfast.
PK samples were drawn pre-dose and at 0.5, 1, 2, 4 and 6 hours post-dose. All blood draws were done after blood pressure measures are taken.
Blood samples for plasma concentration analysis of CERC-301 were collected at pre-dose and 0.5, 1, 2, 4 and 6 hours post-dose at all visits.
Blood sampling, processing, storage, and shipping instructions were provided in the Laboratory Manual. The plasma samples were analyzed via liquid chromatography tandem mass spectrometry (LC-MS/MS) following a validated method.
PK parameter estimates for CERC 301 were calculated using standard non-compartmental methods of analysis.

[3] = rats, cited from earlier work
[4] = monkeys, cited from earlier work

With Cc1ccc(COC(=O)N2CC[C@H](CNc3ncccn3)[C@H](F)C2)cc1 [CERC-301] the “Plasma CERC-301 concentrations increase with dose” value ([1]; 8 to 20 mg, steady-state daily dosing) was “approximately dose proportional”, the “Apparent oral clearance, lower in female subjects compared to male subjects” value ([1]; Day 7) was “approximately 15%” and the “Apparent oral clearance, lower in intermediate age group compared to young age group” value ([1]; Day 7) was “approximately 18%”. For the same compound, the “Average Cmax, higher in intermediate age and elderly subgroups compared to young age group” value ([1]; Day 7) was “approximately 30%”, the “Average t1/2, higher in elderly age group compared to young age group” value ([1]; Day 7) was about 38% and the “Average t1/2, higher in female subjects compared to male subjects” value ([1]; Day 7) was “approximately 16%”. For the same compound, the “Average t1/2, higher in intermediate age group compared to young age group” value ([1]; Day 7) was “approximately 27%”, the “Mean plasma CERC-301 concentrations, higher in elderly subgroup compared to young age subgroup” value ([1]; Day 7, 2 to 24 hours postdose) was about 40% and the “Mean plasma CERC-301 concentrations, higher in female subjects compared to male subjects” value ([1]; Day 7, 2 to 24 hours postdose) was “approximately 20%”. The “Mean plasma CERC-301 concentrations, higher in intermediate age subgroup compared to young age subgroup” value ([1]; Day 7, 2 to 24 hours postdose) was “approximately 20%”, the “Cmax and AUC increase with dose” value ([1]; Days 1 and 7, 8 to 20 mg) was “approximately dose-proportional” and the half-life ([1]; both sexes, human, plasma, oral, male and female subjects, Day 7) was 21 to 24 h. For the same compound, the Tmax ([1]; both sexes, human, plasma, oral, male and female subjects) was 1.75 to 2 h, the “Average Day 7 to Day 1 Cmax ratio” value ([1]; elderly age group) was 1.53 and the “Mean observed accumulation index” value ([1]; elderly age group) was 2.12. The “Mean steady state accumulation index” value ([1]; elderly age group) was 1.30, the “Average apparent volume of distribution” value ([1]; elderly age subgroup, Day 7) was 111 L and the “Average Day 7 to Day 1 Cmax ratio” value ([1]; females) was 1.38. The “Mean observed accumulation index” value ([1]; females) was 1.88, the “Mean steady state accumulation index” value ([1]; females) was 1.10 and the “Average apparent volume of distribution” value ([1]; females, Day 7) was 105 L. For the same compound, the Oral bioavailability ([1]; human, in vivo, po) was “orally bioavailable”, the Tmax ([1]; human, plasma, oral, Day 1, 8 to 20 mg) was 2 to 3 h and the Tmax ([1]; human, plasma, oral, Day 7, 8 to 20 mg) was 1.5 to 3 h. It also gave a Tmax ([1]; human, plasma, oral, young subjects, Days 1 and 7, 8 to 20 mg) of 1.5 to 3 h, a half-life ([1]; human, plasma, oral, young, intermediate age and elderly subgroups, Day 7) of 20 to 28 h and a Tmax ([1]; human, plasma, oral, young, intermediate age and elderly subgroups) of 1.5 to 2.5 h. The Vd ([1]; human, plasma, oral, young subjects, Day 7, 8 to 20 mg, read-out: Average apparent volume of distribution) was 83 to 115 L, the half-life ([1]; human, plasma, oral, young subjects, Day 7, 8 to 20 mg) was 17 to 21 h and the “Average Day 7 to Day 1 Cmax ratio” value ([1]; intermediate age group) was 1.41. The “Mean observed accumulation index” value ([1]; intermediate age group) was 1.92, the “Mean steady state accumulation index” value ([1]; intermediate age group) was 1.13 and the “Average apparent volume of distribution” value ([1]; intermediate age subgroup, Day 7) was 121 L. For the same compound, the “Average Day 7 to Day 1 Cmax ratio” value ([1]; males) was 1.36, the “Mean observed accumulation index” value ([1]; males) was 1.72 and the “Mean steady state accumulation index” value ([1]; males) was 1.15. The “Average apparent volume of distribution” value ([1]; males, Day 7) was 108 L, the “Steady-state predose plasma CERC-301 concentrations achieved” value ([1]; repeated daily doses) was “by study day 5 or 6” and the “Average Day 7 to Day 1 Cmax ratio” value ([1]; young age group) was 1.15. The “Mean observed accumulation index” value ([1]; young age group) was 1.65, the “Mean steady state accumulation index” value ([1]; young age group) was 1.01 and the “Average apparent volume of distribution” value ([1]; young age subgroup, Day 7) was 115 L. For the same compound, the “Steady-state accumulation index (AUC0-24 Day 7/AUC0-inf Day 1)” value ([1]; young subjects, on average) was 1.1, the Cmax dose proportionality ([2]; 8 to 20 mg single doses (FIG. 2)) was “generally dose proportional” and the Tmax ([2]; all dosing groups (8, 12, 16, 20 mg single dose P.O.)) was “approximately 2 hours post dose”. It also gave a Cmax ([2]; 8 mg single dose) of 108 ng/mL, an AUC ([2]; 8 mg single dose) of 473 ng·h/mL and a Cmax ([2]; 12 mg single dose) of 161 ng/mL. For the same compound, the AUC ([2]; 12 mg single dose) was 795 ng·h/mL, the Cmax ([2]; 16 mg single dose) was 187 ng/mL and the AUC ([2]; 16 mg single dose) was 954 ng·h/mL. For the same compound, the Cmax ([2]; 20 mg single dose) was 266 ng/mL, the AUC ([2]; 20 mg single dose) was 1240 ng·h/mL and the Excretion [3] was “excreted exclusively as metabolites via both the biliary and renal routes”. The Metabolism [3] was “highly metabolized via multiple cytochrome P450 (CYP450) enzymes”, the Absorption ([3]; oral administration) was “rapidly absorbed after oral administration” and the Excretion [4] was “excreted exclusively as metabolites via both the biliary and renal routes”. For the same compound, the Metabolism [4] was “highly metabolized via multiple cytochrome P450 (CYP450) enzymes” and the Absorption ([4]; oral administration) was “rapidly absorbed after oral administration”.
